Measured values: patent US20220389013A1, “PYRIDOPYRIMIDINONE COMPOUNDS AND APPLICATIONS THEREOF” (BeBetter Med Inc., priority 2020, published 2022)

Experiments:
H358 (KRAS G12C) = assay: Tumor cell proliferation inhibition assay (CellTiter-Glo), H358; type: cell-based, Human; conditions: 10% fetal bovine serum
Experimental: (§1) The H358, H23 or MIA-Paca2 cells were digested, centrifuged and resuspended, and the cell density was measured with a Scepter automatic cell counter. Cells were diluted to a solution containing 44,000 cells per milliliter, then added to a 96-well culture plate at 90 μL per well. The 96-well plate was placed in a 5% CO2 incubator at 37° C., and after the cells were cultured for 24 hours, different concentrations of the compounds to be tested were added. Cells were incubated with compounds in the presence of 10% fetal bovine serum for 72 hours. The inhibition of cell growth was assessed by measuring ATP levels by using the CellTiter-Glo Luminescent Cell Viability Assay Kit (details in manufacturer's instructions). In brief, 30 μL of CellTiter-Glo reagent was added to each well and the plate was shaken for 10 minutes to induce cell lysis, then the fluorescent signal was detected and recorded with a Fluoroskan Ascent FL (Thermo). Maximum signal values were obtained from cells treated with DMSO for 72 hours. Minimum signal values were obtained with medium only (zero cell number). Inhibition rate %=(maximum signal value-compound signal value)/(maximum signal value-minimum signal value)×100%. Data were processed by using Graphpad prism5 software. IC50 values were calculated using a sigmoidal dose-response curve.

MIA-Paca2 (KRAS G12C) = assay: Tumor cell proliferation inhibition assay (CellTiter-Glo), MIA-Paca2; type: cell-based, Human; conditions: 10% fetal bovine serum
Experimental: as §1

H23 (KRAS G12C) = assay: Tumor cell proliferation inhibition assay (CellTiter-Glo), H23; type: cell-based, Human; conditions: 10% fetal bovine serum
Experimental: as §1

KRAS-G12C/SOS1 = target: T1, KRAS-G12C/SOS1 (Homo sapiens, UniProt P01116, G12C); assay: HTRF KRAS-G12C/SOS1 binding assay; conditions: 2 hours room temperature
T1 construct: purchased Cisbio #63ADK000CB16PEG
T1 sequence (P01116 1-188 isoform P01116-2 G12C): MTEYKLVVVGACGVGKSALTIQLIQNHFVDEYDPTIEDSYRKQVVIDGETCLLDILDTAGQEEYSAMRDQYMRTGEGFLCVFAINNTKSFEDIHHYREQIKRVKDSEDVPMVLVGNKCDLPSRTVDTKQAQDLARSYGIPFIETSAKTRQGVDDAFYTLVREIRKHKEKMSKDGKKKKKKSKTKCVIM
Experimental: 2) Diluted the compound to be tested with diluent into 10× stock solution, starting from a concentration of 10000 nM, diluting in 4-fold gradient and a total of 6 concentration gradients.
After incubated at room temperature for 15 minutes, added pre-mixed 5 uL of anti-Tag1-Tb^3+ and 5 uL of anti-Tag2-XL665. Sealed the plate and incubated at room temperature for 2 hours.
Data were processed by using Graphpad prism software.

[1] = Pharmacokinetic (PK) experiment in rats by gavage; type: in vivo; conditions: rat, plasma, po, male SD rats, 20 mg/kg; for AUC(0-t): read-out: AUC0-24
Experimental: Male SD rats, weighing 180-250 g, were fasted overnight before the test and stomach administrated with the test compound at 20 mg/kg. 15 minutes, 30 minutes, and 1, 2, 4, 6, 8, and 24 hours after administration, blood was taken from the end of the tail of the fracture, about 0.3 mL per time point, then placed in a centrifuge tube containing K2-EDTA, and centrifuged (2000 g, 10 min, at 4° C.). Plasma was collected and stored in an ultra-low temperature freezer at −80° C. 50 μL of plasma samples were vortexed with 135 μL of acetonitrile (containing 1 μg/mL internal standard) for protein precipitation and centrifuged, and the supernatant was collected for LC-MS/MS analysis.
After the rats oral administrated with the Pyridopyrimidinone compounds provided by the present disclosure, the absorption is good, and the blood exposure is relatively high. […] Cmax refers to the maximum plasma concentration, T1/2 is the half-life, AUC0-24 refers to the area under the 0-24 hour time-concentration curve, and AUC0-inf refers to the area under the 0-Inf time-concentration curve.

Row | Compound | IC50 (H358 (KRAS G12C); 72 hours) [µM] | IC50 (MIA-Paca2 (KRAS G12C); 72 hours) [µM] | melting point [°C] | IC50 (H23 (KRAS G12C); 72 hours) [µM] | IC50 (KRAS-G12C/SOS1) [nM] | AUC(0-inf) [1] [ng·h/mL] | Cmax [1] [ng/mL] | Tmax [1] [h] | half-life [1] [h] | AUC(0-t) [1] [ng·h/mL] | IC50 (H358 (KRAS G12C); Homo sapiens, NCI-H358, 72 h) [µM] | IC50 (MIA-Paca2 (KRAS G12C); Homo sapiens, MIA PaCa-2, 72 h) [µM] | IC50 (H23 (KRAS G12C); Homo sapiens, 72 h) [µM]
1 | C=CC(=O)N1C[C@H](C)N(c2nc(=O)n(-c3c(C)ccnc3C(C)C)c3nc(-c4c(F)ccc5ccoc45)c(Cl)cc23)C[C@H]1C (atropisomer, axis not shown; (P)) [Compound 90-2, 4-((2S,5R)-4-acryloyl-2,5-dimethylpiperazin-1-yl)-6-chloro-7-(6-fluorobenzofuran-7-yl)-1(P)-(2-isopropyl-4-methylpyridin-3-yl)pyrido[2,3-d]pyrimidin-2(1H)-one] | 0.05 to 0.1 | 0.05 to 0.1 | 152 to 161 | < 0.01 | – | – | – | – | – | – | – | – | –
2 | C=CC(=O)N1C[C@H](C)N(c2nc(=O)n(-c3c(C)ccnc3C(C)C)c3nc(-c4c(F)c(F)cc5ccoc45)c(F)cc23)C[C@H]1C (atropisomer, axis not shown; (P)) [Compound 91-2, 4-((2S,5R)-4-acryloyl-2,5-dimethylpiperazin-1-yl)-7-(5,6-difluorobenzofuran-7-yl)-6-fluoro-1(P)-(2-isopropyl-4-methylpyridin-3-yl)pyrido[2,3-d]pyrimidin-2(1H)-one] | > 0.5 | > 0.5 | 161 to 173 | 0.05 to 0.1 | – | – | – | – | – | – | – | – | –
3 | C=CC(=O)N1C[C@H](C)N(c2nc(=O)n(-c3c(C)ccnc3C(C)C)c3nc(-c4c(F)c(F)cc5ccoc45)c(Cl)cc23)C[C@H]1C (atropisomer, axis not shown; (P)) [Compound 104-2, 4-((2S,5R)-4-acryloyl-2,5-dimethylpiperazin-1-yl)-6-chloro-7-(5,6-difluorobenzofuran-7-yl)-1(P)-(2-isopropyl-4-methylpyridin-3-yl)pyrido[2,3-d]pyrimidin-2(1H)-one] | 0.1 to 0.5 | 0.1 to 0.5 | 153 to 162 | 0.01 to 0.05 | – | – | – | – | – | – | – | – | –
4 | C=CC(=O)N1CCN(c2nc(=O)n(-c3c(C)ccnc3C(C)C)c3nc(-c4c(F)ccc5ccoc45)c(F)cc23)[C@@H](C)C1 (single isomer, unassigned) [Compound 70-2] | 0.1 to 0.5 | > 0.5 | – | 0.05 to 0.1 | > 1000 | – | – | – | – | – | – | – | –
5 | C=CC(=O)N1CCN(c2nc(=O)n(-c3c(C)ccnc3C(C)C)c3nc(-c4c(F)ccc5ccoc45)c(Cl)cc23)[C@@H](C)C1 (single isomer, unassigned) [Compound 73-2] | 0.01 to 0.05 | 0.1 to 0.5 | – | < 0.01 | 100 to 500 | – | – | – | – | – | – | – | –
6 | C=CC(=O)N1CCN(c2nc(=O)n(-c3c(C)ccnc3C(C)C)c3nc(-c4c(F)c(F)cc5ccoc45)c(F)cc23)[C@@H](C)C1 (single isomer, unassigned) [Compound 74-1] | – | – | – | – | 50 to 100 | 6220 | 3180 | 0.83 | 5.3 | 6200 | 0.01 to 0.05 | 0.01 to 0.05 | < 0.01
7 | C=CC(=O)N1C[C@H](C)N(c2nc(=O)n(-c3c(C)ccnc3C(C)C)c3nc(-c4c(F)ccc5ccoc45)c(F)cc23)C[C@H]1C (single isomer, unassigned) [Compound 89-1] | – | – | 275 to 277 | – | 50 to 100 | 9020 | 3200 | 1 | 3.1 | 9010 | 0.01 to 0.05 | 0.01 to 0.05 | –
8 | C=CC(=O)N1CCN(c2nc(=O)n(-c3c(C)ccnc3C(C)C)c3nc(-c4c(F)ccc5ccoc45)c(F)cc23)[C@@H](C)C1 [Compound 70, 4-((S)-4-acryloyl-2-methylpiperazin-1-yl)-6-fluoro-7-(6-fluorobenzofuran-7-yl)-1-(2-isopropyl-4-methylpyridin-3-yl)pyrido[2,3-d]pyrimidin-2(1H)-one] | – | – | – | – | 100 to 500 | – | – | – | – | – | 0.01 to 0.05 | 0.01 to 0.05 | –
9 | C=CC(=O)N1CCN(c2nc(=O)n(-c3c(C)ccnc3C(C)C)c3nc(-c4c(F)ccc5ccoc45)c(Cl)cc23)[C@@H](C)C1 [Compound 73, 4-((S)-4-acryloyl-2-methylpiperazin-1-yl)-6-chloro-7-(6-fluorobenzofuran-7-yl)-1-(2-isopropyl-4-methylpyridin-3-yl)pyrido[2,3-d]pyrimidin-2(1H)-one] | – | – | – | – | < 50 | 8640 | 3360 | 1 | 3.97 | 8630 | < 0.01 | < 0.01 | < 0.01
10 | C=CC(=O)N1CCN(c2nc(=O)n(-c3c(C)ccnc3C(C)C)c3nc(-c4c(F)ccc5c4OCC5)c(F)cc23)[C@@H](C)C1 [Compound 79, 4-((S)-4-acryloyl-2-methylpiperazin-1-yl)-6-fluoro-7-(6-fluoro-2,3-dihydrobenzofuran-7-yl)-1-(2-isopropyl-4-methylpyridin-3-yl)pyrido[2,3-d]pyrimidin-2(1H)-one] | – | – | – | – | 100 to 500 | – | – | – | – | – | 0.01 to 0.05 | 0.01 to 0.05 | –
11 | C=CC(=O)N1C[C@H](C)N(c2nc(=O)n(-c3c(C)ccnc3C(C)C)c3nc(-c4c(F)c(F)cc5ccoc45)c(F)cc23)C[C@H]1C [Compound 91, 4-((2S,5R)-4-acryloyl-2,5-dimethylpiperazin-1-yl)-7-(5,6-difluorobenzofuran-7-yl)-6-fluoro-1-(2-isopropyl-4-methylpyridin-3-yl)pyrido[2,3-d]pyrimidin-2(1H)-one] | 0.01 to 0.05 | 0.05 to 0.1 | – | < 0.01 | – | – | – | – | – | – | – | – | –
12 | C=CC(=O)N1CCN(c2nc(=O)n(-c3c(C)ccnc3C(C)C)c3nc(-c4c(F)ccc5c4OCO5)c(Cl)cc23)[C@@H](C)C1 [Compound 97, 4-((S)-4-acryloyl-2-methylpiperazin-1-yl)-6-chloro-7-(5-fluorobenzo[d][1,3]dioxol-4-yl)-1-(2-isopropyl-4-methylpyridin-3-yl)pyrido[2,3-d]pyrimidin-2(1H)-one] | – | – | – | – | 50 to 100 | 10400 | 4660 | 1 | 5.98 | 10400 | < 0.01 | 0.01 to 0.05 | –
13 | C=CC(=O)N1CCN(c2nc(=O)n(-c3c(C)ccnc3C(C)C)c3nc(-c4c(F)ccc5ccoc45)c(Cl)cc23)[C@@H](CC)C1 [Compound 99, 4-((S)-4-acryloyl-2-ethylpiperazin-1-yl)-6-chloro-7-(6-fluorobenzofuran-7-yl)-1-(2-isopropyl-4-methylpyridin-3-yl)pyrido[2,3-d]pyrimidin-2(1H)-one] | – | – | – | – | – | – | – | – | – | – | 0.05 to 0.1 | 0.1 to 0.5 | < 0.01
14 | C=CC(=O)N1CCN(c2nc(=O)n(-c3c(C)ccnc3C(C)C)c3nc(-c4c(F)c(F)cc5ccoc45)c(Cl)cc23)[C@@H](C)C1 [Compound 103, 4-((S)-4-acryloyl-2-methylpiperazin-1-yl)-6-chloro-7-(5,6-difluorobenzofuran-7-yl)-1-(2-isopropyl-4-methylpyridin-3-yl)pyrido[2,3-d]pyrimidin-2(1H)-one] | < 0.01 | 0.01 to 0.05 | – | – | – | 9420 | 3310 | 1 | 3.77 | 9400 | – | – | < 0.01
15 | C=CC(=O)N1C[C@H](C)N(c2nc(=O)n(-c3c(C)ccnc3C(C)C)c3nc(-c4c(F)c(F)cc5ccoc45)c(Cl)cc23)C[C@H]1C [Compound 104, 4-((2S,5R)-4-acryloyl-2,5-dimethylpiperazin-1-yl)-6-chloro-7-(5,6-difluorobenzofuran-7-yl)-1-(2-isopropyl-4-methylpyridin-3-yl)pyrido[2,3-d]pyrimidin-2(1H)-one] | < 0.01 | 0.01 to 0.05 | – | – | – | 13000 | 2110 | 2 | 2.46 | 13000 | – | – | < 0.01
16 | C=CC(=O)N1CCN(c2nc(=O)n(-c3c(C(C)C)ccnc3C(C)C)c3nc(-c4c(F)ccc5ccoc45)c(Cl)cc23)[C@@H](C)C1 [Compound 122, 4-((S)-4-acryloyl-2-methylpiperazin-1-yl)-6-chloro-1-(2,4-diisopropylpyridin-3-yl)-7-(6-fluorobenzofuran-7-yl)pyrido[2,3-d]pyrimidin-2(1H)-one] | – | – | 162 to 173 | – | < 50 | 6000 | 1630 | 1.67 | 3.64 | 5990 | < 0.01 | < 0.01 | –
